Entries after “also recorded” stand apart in the source; their conditions may differ.
Tests used:
Type in all cases: cell-based, human
[1] = system: GNAQ c.548G>A, p.(R183Q) allele; assay: Western blot knock-down of HA-tagged Gαq in TIME cells expressing wild-type or p.R183Q; details: 50 nM siRNA, 24 h after transfection, TIME cells stably expressing wild-type or p.R183Q HA-tagged Gαq
Description: (§1) FIG. 5—Designing and testing siRNA specific for GNAQ c.548G>A, p.(R183Q) A. Schematic representation of the 6 siRNAs designed to target specifically GNAQ c.548G>A allele. B. TIME cells stably expressing either wild-type or p.R183Q HA-tagged Gαq were transfected by 50 nM siRNAs targeting GNAQ c.548G>A, p.(R183Q) allele and analysed by western-blot 24 h after transfection. […] C. (average of three experiments, * p<0.05). D. Schematic representation of the 6 siRNAs designed to target specifically GNA11 c.547C>T p.(R183C). E. TIME cells stably expressing either wild-type or p.R183C HA-tagged Gα11 were transfected by 25 nM siRNAs targeting GNA11 c.547C>T, p.(R183C) allele and analysed by western-blot 24 h after transfection. […] (average of three experiments, * p<0.05).
(§2) hTERT-immortalised microvascular endothelial cells (TIME-ATCC CRL-4025TM, “TIME” cells) and their transgenic derivatives were maintained in EBMTM-2 Endothelial Cell Growth Basal Medium-2 (Lonza CC-3156), supplemented with EGMTM-2 BulletKit (Lonza CC-3162) and 3% fetal bovine serum (Gibco).
(§3) TIME cells were transduced with lentiviral vectors to induce stable expression of HA-tagged forms of GNAQ WT, GNAQ p.(R183Q), GNA11 WT, GNA11 p.(R183C) cDNAs (FIG. 4), and we confirmed presence of the mutations in the genomic DNA by Sanger sequencing (FIG. 4B). […]

GNAQR183Q mutant allele = assay: Expression of GNAQR183Q mutant allele in UPMM1, mutant-specific primers; details: UPMM1 cells
Description: (§4) FIG. 10—GNAQ and CRAC inhibition in uveal melanoma cells. […] UPMM1 cells were non-transfected or transfected with non-target control siRNA (siSCRA) or with 2 distinct GNAQR183Q-mutant specific siRNAs (siGNAQmut3 and siGNAQmut6) and expression of the mutant allele was measured by using GNAQR183Q-mutant specific primers previously validated (forward primer: […] (SEQ ID NO:25); reverse primer: […] (SEQ ID NO:26). B. Transfection with siRNAs silencing GNAQ mutant allele reduced GPCR ligand-induced calcium intra-cellular accumulation. Cells loaded with Fluo-8 calcium marker were stimulated by the GPCR ligand leukotriene D4 (LTD4) and fluorescence was recorded over the time. C. […] Cells loaded with Fluo-8 calcium probe were treated by CM4620 1, 3 or 10 μM, stimulated by the GPCR ligand leukotriene D4 (LTD4) and fluorescence was recorded over the time.

TIME GNAQR183Q cells [2] = assay: Fluo-8 AM assay, thrombin-induced intracellular calcium, GNAQ variant cells; details: 1 μM for 20 minutes, thrombin 1 U/ml
Description: (§5) FIG. 3—CRAC channel inhibition and variant-specific siRNAs rescue aberrant calcium signalling in variant cells. A-B. TIME-GNAQ^WT (A) or −GNAQ^R183Q (B) were loaded with intracellular calcium probe Fluo-8 and treated for 20 minutes with vehicle or 1 μM […]. Following treatment, cells were stimulated with thrombin 1 U/ml and fluorescence recorded for 300 seconds. The graphs represent an avarage of three independent experiments performed in technical quadruplicates. C. Means +/−SD deviation of areas under the curve calculated from three experiments summarised in […]. Statistical comparisons were performed by two-tailed paired t test (n.s=not statistically significant, * p=0.0284). […] IP1 concentration was measured 48 hours after transfection and shown as mean +/−SD of three independent experiments. […] TIME-GNAQ p.(R183Q); NFAT-Luc were transfected with non-target siRNA (siSCRA) or two siRNAs for specific silencing of the variant GNAQ allele (siGNAQmut 1 and 3) and luciferase reporter activity was measured 48 hours after transfection in complete medium or after four hours of starvation, shown as mean +/−SD of % change of cells transfected with mock in three independent experiments. […]

TIME GNAQWT cells [3] = assay: Fluo-8 AM assay, thrombin-induced intracellular calcium, GNAQ WT cells; details: 1 μM for 20 minutes, thrombin 1 U/ml
Description: as §5

TIME GNAQR183Q cells [4] = assay: In vitro angiogenesis (endothelial tube formation) assay, GNAQ variant cells; details: 1 μM, in presence of thrombin 0.3 U/ml, vs vehicle
Source text: (§6) FIG. 8—In vitro angiogenesis is disrupted by mutant GNAQ and rescued by CRAC channel inhibition. (A) Representative images captured with EVOS Floid Imaging System following Calcein AM staining during in vitro endothelial cell tube formation of TIME cells stably expressing either GNAQ WT or GNAQ R183Q. […] Statistical significance calculated using two-tailed unpaired t-test on three independent experiments (**** p<0.0001). […] Results shown as mean of a technical triplicate for each of 4 independent experiments. Statistical analysis performed by two-tailed paired t-test on four independent experiments (n.s=not statistically significant, * p=0.0125). […] Results shown as mean +/−SD of three independent experiments, and statistical analysis performed by two-tailed paired t-test (n.s=not statistically significant, * p=0.04).
(§7) TIME endothelial cell models were used to assess angiogenesis using a standard in vitro angiogenesis assay. […] Furthermore, thrombin GPCR activation disrupted angiogenesis in GNAQR183Q more than in GNAQWT (FIG. 8C).

TIME GNAQWT cells [5] = assay: In vitro angiogenesis (endothelial tube formation) assay, GNAQ WT cells; details: 1 μM, in presence of thrombin 0.3 U/ml, vs vehicle
Source text: as §6, §7

UPMM1 UM cell line = assay: Fluo-8 assay, LTD4-induced intracellular calcium in UPMM1; details: UPMM1, Fluo-8, 1, 3 or 10 μM, leukotriene D4 stimulation
Description: as §4

[6] = system: GNA11 c.547C>T, p.(R183C) allele; assay: Western blot knock-down of HA-tagged Gα11 in TIME cells expressing wild-type or p.R183C; details: 25 nM siRNA, 24 h after transfection, TIME cells stably expressing wild-type or p.R183C HA-tagged Gα11
Description: as §1, §2, §3

Molecule: CUUAGAGUUCAAGUCCCCA[dT][dT] (antisense GGGGACUUGAACUCUAAGC; dTdT overhangs, chemistry not fully specified) [siGNAQmut #3, siRNA to GNAQ c.548G>A p.(R183Q)]
- specific knock-down of variant Gαq protein over wild-type (western blot) [1]: specific knock-down of variant protein over wild-type counterparts
- expression of the GNAQR183Q mutant allele (GNAQR183Q mutant allele): reduced expression of the mutant allele

Molecule: AGAGUUCAAGUCCCCACCA[dT][dT] (antisense UGGUGGGGACUUGAACUCU; dTdT overhangs, chemistry not fully specified) [siGNAQmut #6, siRNA to GNAQ c.548G>A p.(R183Q)]
- expression of the GNAQR183Q mutant allele (GNAQR183Q mutant allele): reduced expression of the mutant allele

Molecule: Cc1cccc(F)c1C(=O)Nc1cnc(-c2cc3c(cc2Cl)OC(F)(F)O3)cn1 [CM4620]
- thrombin-induced calcium signalling, GNAQ-variant cells (TIME GNAQR183Q cells [2]): inhibits the variant cell response; also recorded: markedly rescuing the prolonged calcium intracellular peak
- thrombin-induced calcium signalling, GNAQ WT cells (TIME GNAQWT cells [3]): limited effects
- tubule formation (total length of the network), GNAQR183Q (TIME GNAQR183Q cells [4]): improved tubule formation
- tubule formation (total length of the network), GNAQWT (TIME GNAQWT cells [5]): no statistically significant difference; also recorded: not GNAQWT
- GPCR ligand (LTD4)-induced accumulation of intracellular calcium (UPMM1 UM cell line): reduced the GPCR ligand-induced accumulation of intracellular calcium

Molecule: CUGCGGGUCUGCGUGCCCA[dT][dT] (antisense UGGGCACGCAGACCCGCAG; dTdT overhangs, chemistry not fully specified) [siGNA11mut #4, siRNA to GNA11 c.547C>T p.(R183C)]
- specific knock-down of variant Gα11 protein over wild-type (western blot) [6]: specific knock-down of variant protein over wild-type counterparts

Molecule: UGCUUAGAGUUCAAGUCCC[dT][dT] (antisense GGGACUUGAACUCUAAGCA; dTdT overhangs, chemistry not fully specified) [siGNAQmut #1, siRNA to GNAQ c.548G>A p.(R183Q)]
- specific knock-down of variant Gαq protein over wild-type (western blot) [1]: specific knock-down of variant protein over wild-type counterparts
